Results reported in ChEMBL document CHEMBL1125487, “Acetazolamide-like carbonic anhydrase inhibitors with topical ocular hypotensive activity” (J Med Chem, 1992).
Values after ≈ are worked out from the molar mass of the structure shown. Values joined by “and” are separate entries in the source; they are usually repeats but may differ in a detail not shown here. Identical values can stand only once.

How the values were obtained:
Oryctolagus cuniculus [1] = species: Oryctolagus cuniculus; test: Effect on intraocular pressure in right eye was tested by using transition ocular hypertension model at 0 min.; format: functional
Oryctolagus cuniculus [2] = species: Oryctolagus cuniculus; test: Effect on intraocular pressure in left eye was tested by using transition ocular hypertension model at 20 min.; format: functional
Oryctolagus cuniculus [3] = species: Oryctolagus cuniculus; test: Effect on intraocular pressure in left eye was tested by using transition ocular hypertension model at 10 min.; format: functional
Oryctolagus cuniculus [4] = species: Oryctolagus cuniculus; test: Effect on intraocular pressure in left eye was tested by using transition ocular hypertension model at 0 min.; format: functional
Carbonic anhydrase = format: protein assay
Description: Inhibition of Carbonic anhydrase enzyme in rabbits

Oryctolagus cuniculus [5] = species: Oryctolagus cuniculus; test: Effect on intraocular pressure in right eye was tested by using transition ocular hypertension model at 40 min.; format: functional
Oryctolagus cuniculus [6] = species: Oryctolagus cuniculus; test: Effect on intraocular pressure in left eye was tested by using transition ocular hypertension model at basal condition; format: functional
Oryctolagus cuniculus [7] = species: Oryctolagus cuniculus; test: Effect on intraocular pressure in right eye was tested by using transition ocular hypertension model at 20 min.; format: functional
Oryctolagus cuniculus [8] = species: Oryctolagus cuniculus; test: Effect on intraocular pressure in left eye was tested by using transition ocular hypertension model at 40 min.; format: functional
physchem = details: phosphate buffer
Description: Solubility (in phosphate buffer)

Oryctolagus cuniculus [9] = species: Oryctolagus cuniculus; test: Effect on intraocular pressure in right eye was tested by using transition ocular hypertension model at 10 min.; format: functional
Oryctolagus cuniculus [10] = species: Oryctolagus cuniculus; test: Effect on intraocular pressure in right eye was tested by using transition ocular hypertension model at basal condition; format: functional
Oryctolagus cuniculus [11] = test: Effect on intraocular pressure in left eye was tested by using transition ocular hypertension model at basal condition (after 4 hr administration); format: functional
Oryctolagus cuniculus [12] = test: Effect on intraocular pressure in left eye was tested by using transition ocular hypertension model at 10 min. (after 8 hr administration); format: functional
Oryctolagus cuniculus [13] = test: Effect on intraocular pressure in right eye was tested by using transition ocular hypertension model at basal condition (after 4 hr administration); format: functional
Oryctolagus cuniculus [14] = test: Effect on intraocular pressure in left eye was tested by using transition ocular hypertension model at 20 min. (after 4 hr administration); format: functional
Oryctolagus cuniculus [15] = test: Effect on intraocular pressure in left eye was tested by using transition ocular hypertension model at basal condition (after 8 hr administration); format: functional
Oryctolagus cuniculus [16] = test: Effect on intraocular pressure in right eye was tested by using transition ocular hypertension model at 0 min (after 4 hr administration); format: functional
Oryctolagus cuniculus [17] = test: Effect on intraocular pressure in left eye was tested by using transition ocular hypertension model at 20 min. (after 8 hr administration); format: functional
Oryctolagus cuniculus [18] = test: Effect on intraocular pressure in right eye was tested by using transition ocular hypertension model at 20 min. (after 8 hr administration); format: functional
Oryctolagus cuniculus [19] = test: Effect on intraocular pressure in right eye was tested by using transition ocular hypertension model at basal condition (after 8 hr administration); format: functional
Oryctolagus cuniculus [20] = test: Effect on intraocular pressure in left eye was tested by using transition ocular hypertension model at 0 min. (after 4 hr administration); format: functional
Oryctolagus cuniculus [21] = test: Effect on intraocular pressure in right eye was tested by using transition ocular hypertension model at 40 min. (after 8 hr administration); format: functional
Oryctolagus cuniculus [22] = test: Effect on intraocular pressure in left eye was tested by using transition ocular hypertension model at 40 min. (after 4 hr administration); format: functional
Oryctolagus cuniculus [23] = test: Effect on intraocular pressure in right eye was tested by using transition ocular hypertension model at 0 min (after 8 hr administration); format: functional
Oryctolagus cuniculus [24] = test: Effect on intraocular pressure in left eye was tested by using transition ocular hypertension model at 0 min. (after 8 hr administration); format: functional
Oryctolagus cuniculus [25] = test: Effect on intraocular pressure in right eye was tested by using transition ocular hypertension model at 20 min. (after 4 hr administration); format: functional
Oryctolagus cuniculus [26] = test: Effect on intraocular pressure in right eye was tested by using transition ocular hypertension model at 40 min. (after 4 hr administration); format: functional
Oryctolagus cuniculus [27] = test: Effect on intraocular pressure in right eye was tested by using transition ocular hypertension model at 10 min. (after 8 hr administration); format: functional
Oryctolagus cuniculus [28] = test: Effect on intraocular pressure in right eye was tested by using transition ocular hypertension model at 10 min. (after 4 hr administration); format: functional
Oryctolagus cuniculus [29] = test: Effect on intraocular pressure in left eye was tested by using transition ocular hypertension model at 40 min. (after 8 hr administration); format: functional
Oryctolagus cuniculus [30] = test: Effect on intraocular pressure in left eye was tested by using transition ocular hypertension model at 10 min. (after 4 hr administration); format: functional
[31] = buffer
Description: Solubility (in phosphate buffer)

Row | IC50 (Carbonic anhydrase) | solubility (physchem) | Compound | IOP (Oryctolagus cuniculus [1]) | IOP (Oryctolagus cuniculus [2]) | IOP (Oryctolagus cuniculus [3]) | IOP (Oryctolagus cuniculus [4]) | IOP (Oryctolagus cuniculus [5]) | IOP (Oryctolagus cuniculus [6]) | IOP (Oryctolagus cuniculus [7]) | IOP (Oryctolagus cuniculus [8]) | IOP (Oryctolagus cuniculus [9]) | IOP (Oryctolagus cuniculus [10]) | other results
1 | 230 nM | < 1 mM | COC(=O)CCCCC(=O)Nc1nnc(S(N)(=O)=O)s1 |  |  |  |  |  |  |  |  |  |  | 
2 | 910 nM | < 1 mM | COC(=O)CCCCCCCC(=O)Nc1nnc(S(N)(=O)=O)s1 |  |  |  |  |  |  |  |  |  |  | 
3 | 940 nM | 16 mM (≈ 4480 µg/mL) | COC(=O)CC(=O)Nc1nnc(S(N)(=O)=O)s1 | 15.87 mmHg | 22.5 mmHg | 27.17 mmHg | 16.17 mmHg | 17 mmHg | 16.33 mmHg | 19.67 mmHg | 19.17 mmHg | 23.17 mmHg | 16.17 mmHg | 
4 | 910 nM | 11.5 mM (≈ 3550 µg/mL) | COC(=O)CCCC(=O)Nc1nnc(S(N)(=O)=O)s1 |  |  |  |  |  |  |  |  |  |  | 
5 |  | 25 mM (≈ 7710 µg/mL) | NS(=O)(=O)c1nnc(NC(=O)CCCCC(=O)O)s1 | 16.33 mmHg | 21.67 mmHg | 25.17 mmHg | 16.17 mmHg and 22 mmHg | 17.17 mmHg | 16.33 mmHg | 20 mmHg | 18 mmHg |  | 16.83 mmHg | 
6 |  | 8.9 mM (≈ 2740 µg/mL) | CCOC(=O)CCC(=O)Nc1nnc(S(N)(=O)=O)s1 | 13.33 mmHg | 20.67 mmHg | 25.67 mmHg | 15.5 mmHg | 15.67 mmHg | 15.33 mmHg | 17.33 mmHg | 17.67 mmHg | 20.33 mmHg | 15.33 mmHg | 
7 | 440 nM |  | NCCCCC(=O)Nc1nnc(S(N)(=O)=O)s1 | 15 mmHg | 21.5 mmHg | 26.17 mmHg | 15.83 mmHg | 16.83 mmHg | 15.5 mmHg | 20.83 mmHg | 17.33 mmHg | 24 mmHg | 15.83 mmHg | S [31]: 8.8 mM
8 | 520 nM | 31 mM (≈ 9120 µg/mL) | NS(=O)(=O)c1nnc(NC(=O)CCCC(=O)O)s1 | 14.67 mmHg | 22 mmHg | 25.5 mmHg | 15.33 mmHg | 16.5 mmHg | 15.5 mmHg | 19 mmHg | 17.83 mmHg | 21.17 mmHg | 15.5 mmHg | 
9 | 550 nM | 3.2 mM (≈ 942 µg/mL) | COC(=O)CCC(=O)Nc1nnc(S(N)(=O)=O)s1 | 15.17 mmHg | 20.17 mmHg | 25.5 mmHg | 16.17 mmHg | 16.5 mmHg | 15.83 mmHg | 19.5 mmHg | 16.67 mmHg | 25.33 mmHg | 15.67 mmHg | 

More lines, now with the values behind:

Row | Compound | IC50 (Carbonic anhydrase) | solubility (physchem) | IOP (Oryctolagus cuniculus [1]) | IOP (Oryctolagus cuniculus [2]) | IOP (Oryctolagus cuniculus [3]) | IOP (Oryctolagus cuniculus [4]) | IOP (Oryctolagus cuniculus [5]) | IOP (Oryctolagus cuniculus [6]) | IOP (Oryctolagus cuniculus [7]) | IOP (Oryctolagus cuniculus [8]) | IOP (Oryctolagus cuniculus [9]) | IOP (Oryctolagus cuniculus [10]) | other results
10 | NS(=O)(=O)c1nnc(NC(=O)CCCCCCCC(=O)O)s1 | 480 nM | 21.6 mM (≈ 7570 µg/mL) | 16.17 mmHg | 20.67 mmHg | 26.5 mmHg | 16 mmHg | 17 mmHg | 16 mmHg | 19.5 mmHg | 17.5 mmHg | 25.17 mmHg | 15.83 mmHg | 
11 | CCC(C)OC(=O)CCC(=O)Nc1nnc(S(N)(=O)=O)s1 (configuration not stated) | 370 nM | 3.7 mM (≈ 1240 µg/mL) | 14.67 mmHg | 21.17 mmHg | 25.67 mmHg | 15.5 mmHg | 16.67 mmHg | 15.33 mmHg | 19 mmHg | 17.17 mmHg | 21.5 mmHg | 15.67 mmHg | 
12 | NS(=O)(=O)c1nnc(NC(=O)CCC(=O)O)s1 |  | 60.7 mM (≈ 17000 µg/mL) | 14.33 mmHg | 21.67 mmHg | 26 mmHg | 15.5 mmHg | 15.67 mmHg | 15.5 mmHg | 17.17 mmHg | 19 mmHg | 19.33 mmHg | 15.67 mmHg | IOP (Oryctolagus cuniculus [11]): 15.5 mmHg; IOP (Oryctolagus cuniculus [12]): 26.17 mmHg; IOP (Oryctolagus cuniculus [13]): 15.5 mmHg; IOP (Oryctolagus cuniculus [14]): 22 mmHg; IOP (Oryctolagus cuniculus [15]): 15.67 mmHg; IOP (Oryctolagus cuniculus [16]): 13.33 mmHg; IOP (Oryctolagus cuniculus [17]): 21.5 mmHg; IOP (Oryctolagus cuniculus [18]): 18.67 mmHg; IOP (Oryctolagus cuniculus [19]): 15.67 mmHg; IOP (Oryctolagus cuniculus [20]): 15.33 mmHg; IOP (Oryctolagus cuniculus [21]): 16.5 mmHg; IOP (Oryctolagus cuniculus [22]): 18.83 mmHg; IOP (Oryctolagus cuniculus [23]): 14.83 mmHg; IOP (Oryctolagus cuniculus [24]): 15.67 mmHg; IOP (Oryctolagus cuniculus [25]): 18.33 mmHg; IOP (Oryctolagus cuniculus [26]): 16.33 mmHg; IOP (Oryctolagus cuniculus [27]): 22.23 mmHg; IOP (Oryctolagus cuniculus [28]): 18.5 mmHg; IOP (Oryctolagus cuniculus [29]): 18.67 mmHg; IOP (Oryctolagus cuniculus [30]): 25.83 mmHg
13 | CCCCCOC(=O)CCC(=O)/N=c1/sc(S(N)(=O)=O)nn1C | 310 nM | 1.4 mM (≈ 510 µg/mL) | 15.5 mmHg | 20.67 mmHg | 24 mmHg | 15.33 mmHg | 22 mmHg | 15.83 mmHg | 25.17 mmHg | 17.83 mmHg | 20.67 mmHg | 15.67 mmHg | 
14 | CCCCCOC(=O)CCC(=O)Nc1nnc(S(N)(=O)=O)s1 | 390 nM | 1.3 mM (≈ 456 µg/mL) | 15 mmHg | 21.33 mmHg | 24.5 mmHg | 15.67 mmHg | 17.83 mmHg | 15.67 mmHg | 20 mmHg | 18.83 mmHg | 22.67 mmHg | 15.83 mmHg | 
15 | COC(=O)CCC(=O)/N=c1/sc(S(N)(=O)=O)nn1C | 450 nM | 7.3 mM (≈ 2250 µg/mL) | 14.83 mmHg | 21.5 mmHg | 25.83 mmHg | 16 mmHg | 17.33 mmHg | 15.33 mmHg | 20.83 mmHg | 17.83 mmHg | 24.67 mmHg | 15.5 mmHg | 
16 | CCCCCCCCCCCCOC(=O)CCC(=O)Nc1nnc(S(N)(=O)=O)s1 | 520 nM |  |  |  |  |  |  |  |  |  |  |  | 
17 | CC(C)(C)NC[C@H](O)COc1nsnc1N1CCOCC1 [TIMOLOL] |  |  | 15.77 mmHg | 21.97 mmHg | 25.84 mmHg | 16.84 mmHg | 18.77 mmHg | 18.53 mmHg | 19.38 mmHg | 18.77 mmHg | 18.57 mmHg | 18.53 mmHg | 
